PubChem BioAssay AID272 (DTP/NCI, 2004)
Values joined by “and” are separate entries in the source; they are usually repeats but may differ in a detail not shown here. Equal values may be shown once. Records with an inconclusive call do not appear.

Test system: Lewis lung carcinoma i.m., BDF1 mice, T/C %
Assay: NCI In Vivo Anticancer Drug Screen. Data for tumor model Lewis Lung Carcinoma (intramuscular) in B6D2F1 (BDF1) mice
Procedure, shortened: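 Compound given to mice with transplantable tumours; survival or tumour size compared against the vehicle control group, reported as T divided by C.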

CC(CN1CC(=O)NC(=O)C1)N1CC(=O)NC(=O)C1 (configuration not stated)
T/C (endpoint: mean tumor weight, dose: 6.25 mg/kg/injection, schedule: Q01DX005 (ip), vehicle: Klucel (hydroxypropylcellulose) (HPC), higher = larger tumour): 61 % of control
T/C (endpoint: mean tumor weight, dose: 6.25 mg/kg/injection, schedule: Q01DX009 (ip), vehicle: Klucel (hydroxypropylcellulose) (HPC), higher = larger tumour): 49 % of control
T/C (endpoint: mean tumor weight, dose: 6.25 mg/kg/injection, schedule: Q01DX011 (ip), vehicle: Klucel (hydroxypropylcellulose) (HPC), higher = larger tumour): 73 % of control
T/C (endpoint: mean tumor weight, dose: 6.25 mg/kg/injection, schedule: Q01DX017 (ip), vehicle: Klucel (hydroxypropylcellulose) (HPC), higher = larger tumour): 57 % of control
T/C (endpoint: mean tumor weight, dose: 12.5 mg/kg/injection, schedule: Q01DX005 (ip), vehicle: Klucel (hydroxypropylcellulose) (HPC), higher = larger tumour): 62 % of control
T/C (endpoint: mean tumor weight, dose: 12.5 mg/kg/injection, schedule: Q01DX009 (ip), vehicle: Klucel (hydroxypropylcellulose) (HPC), higher = larger tumour): 59 % of control
T/C (endpoint: mean tumor weight, dose: 12.5 mg/kg/injection, schedule: Q01DX011 (ip), vehicle: Klucel (hydroxypropylcellulose) (HPC), higher = larger tumour): 52 % of control
T/C (endpoint: mean tumor weight, dose: 12.5 mg/kg/injection, schedule: Q01DX011 (ip), vehicle: steriod suspending solution, higher = larger tumour): 83 % of control and 85 % of control
T/C (endpoint: mean tumor weight, dose: 12.5 mg/kg/injection, schedule: Q01DX017 (ip), vehicle: Klucel (hydroxypropylcellulose) (HPC), higher = larger tumour): 49 % of control
T/C (endpoint: mean tumor weight, dose: 25.0 mg/kg/injection, schedule: Q01DX005 (ip), vehicle: Klucel (hydroxypropylcellulose) (HPC), higher = larger tumour): 50 % of control
T/C (endpoint: mean tumor weight, dose: 25.0 mg/kg/injection, schedule: Q01DX009 (ip), vehicle: Klucel (hydroxypropylcellulose) (HPC), higher = larger tumour): 26 % of control
T/C (endpoint: mean tumor weight, dose: 25.0 mg/kg/injection, schedule: Q01DX011 (ip), vehicle: Klucel (hydroxypropylcellulose) (HPC), higher = larger tumour): 39 % of control
T/C (endpoint: mean tumor weight, dose: 25.0 mg/kg/injection, schedule: Q01DX017 (ip), vehicle: Klucel (hydroxypropylcellulose) (HPC), higher = larger tumour): 44 % of control
T/C (endpoint: mean tumor weight, dose: 25.0 mg/kg/injection, schedule: Q04DX003 (ip), vehicle: Klucel (hydroxypropylcellulose) (HPC), higher = larger tumour): 99 % of control
T/C (endpoint: mean tumor weight, dose: 25.0 mg/kg/injection, schedule: Q04DX005 (ip), vehicle: Klucel (hydroxypropylcellulose) (HPC), higher = larger tumour): 104 % of control
T/C (endpoint: mean tumor weight, dose: 50.0 mg/kg/injection, schedule: Q01DX005 (ip), vehicle: Klucel (hydroxypropylcellulose) (HPC), higher = larger tumour): 49 % of control
T/C (endpoint: mean tumor weight, dose: 50.0 mg/kg/injection, schedule: Q01DX009 (ip), vehicle: Klucel (hydroxypropylcellulose) (HPC), higher = larger tumour): 32 % of control
T/C (endpoint: mean tumor weight, dose: 50.0 mg/kg/injection, schedule: Q01DX011 (ip), vehicle: Klucel (hydroxypropylcellulose) (HPC), higher = larger tumour): 14 % of control
T/C (endpoint: mean tumor weight, dose: 50.0 mg/kg/injection, schedule: Q04DX003 (ip), vehicle: Klucel (hydroxypropylcellulose) (HPC), higher = larger tumour): 80 % of control
T/C (endpoint: mean tumor weight, dose: 50.0 mg/kg/injection, schedule: Q04DX005 (ip), vehicle: Klucel (hydroxypropylcellulose) (HPC), higher = larger tumour): 85 % of control
T/C (endpoint: mean tumor weight, dose: 100.0 mg/kg/injection, schedule: Q01DX005 (ip), vehicle: Klucel (hydroxypropylcellulose) (HPC), higher = larger tumour): 21 % of control
T/C (endpoint: mean tumor weight, dose: 100.0 mg/kg/injection, schedule: Q04DX003 (ip), vehicle: Klucel (hydroxypropylcellulose) (HPC), higher = larger tumour): 70 % of control and 80 % of control
T/C (endpoint: mean tumor weight, dose: 100.0 mg/kg/injection, schedule: Q04DX005 (ip), vehicle: Klucel (hydroxypropylcellulose) (HPC), higher = larger tumour): 78 % of control
T/C (endpoint: mean tumor weight, dose: 200.0 mg/kg/injection, schedule: Q04DX003 (ip), vehicle: Klucel (hydroxypropylcellulose) (HPC), higher = larger tumour): 50 % of control and 58 % of control
T/C (endpoint: mean tumor weight, dose: 200.0 mg/kg/injection, schedule: Q04DX005 (ip), vehicle: Klucel (hydroxypropylcellulose) (HPC), higher = larger tumour): 56 % of control
T/C (endpoint: mean tumor weight, dose: 400.0 mg/kg/injection, schedule: Q04DX003 (ip), vehicle: Klucel (hydroxypropylcellulose) (HPC), higher = larger tumour): 6 % of control
T/C (endpoint: mean tumor weight, dose: 400.0 mg/kg/injection, schedule: Q04DX005 (ip), vehicle: Klucel (hydroxypropylcellulose) (HPC), higher = larger tumour): 7 % of control
T/C (endpoint: median survival time, dose: 6.25 mg/kg/injection, schedule: Q01DX005 (ip), vehicle: Klucel (hydroxypropylcellulose) (HPC), higher = longer survival): 111 % of control
T/C (endpoint: median survival time, dose: 6.25 mg/kg/injection, schedule: Q01DX009 (ip), vehicle: Klucel (hydroxypropylcellulose) (HPC), higher = longer survival): 105 % of control
T/C (endpoint: median survival time, dose: 6.25 mg/kg/injection, schedule: Q01DX011 (ip), vehicle: Klucel (hydroxypropylcellulose) (HPC), higher = longer survival): 117 % of control
T/C (endpoint: median survival time, dose: 6.25 mg/kg/injection, schedule: Q01DX017 (ip), vehicle: Klucel (hydroxypropylcellulose) (HPC), higher = longer survival): 113 % of control
T/C (endpoint: median survival time, dose: 12.5 mg/kg/injection, schedule: Q01DX005 (ip), vehicle: Klucel (hydroxypropylcellulose) (HPC), higher = longer survival): 96 % of control
T/C (endpoint: median survival time, dose: 12.5 mg/kg/injection, schedule: Q01DX009 (ip), vehicle: Klucel (hydroxypropylcellulose) (HPC), higher = longer survival): 100 % of control
T/C (endpoint: median survival time, dose: 12.5 mg/kg/injection, schedule: Q01DX011 (ip), vehicle: Klucel (hydroxypropylcellulose) (HPC), higher = longer survival): 92 % of control
T/C (endpoint: median survival time, dose: 12.5 mg/kg/injection, schedule: Q01DX017 (ip), vehicle: Klucel (hydroxypropylcellulose) (HPC), higher = longer survival): 86 % of control
T/C (endpoint: median survival time, dose: 15.0 mg/kg/injection, schedule: Q01DX011 (ip), vehicle: carboxymethylcellulose (CMC), higher = longer survival): 100 % of control
T/C (endpoint: median survival time, dose: 25.0 mg/kg/injection, schedule: Q01DX005 (ip), vehicle: Klucel (hydroxypropylcellulose) (HPC), higher = longer survival): 94 % of control
T/C (endpoint: median survival time, dose: 25.0 mg/kg/injection, schedule: Q01DX009 (ip), vehicle: Klucel (hydroxypropylcellulose) (HPC), higher = longer survival): 111 % of control
T/C (endpoint: median survival time, dose: 25.0 mg/kg/injection, schedule: Q01DX011 (ip), vehicle: Klucel (hydroxypropylcellulose) (HPC), higher = longer survival): 98 % of control
T/C (endpoint: median survival time, dose: 25.0 mg/kg/injection, schedule: Q04DX003 (ip), vehicle: Klucel (hydroxypropylcellulose) (HPC), higher = longer survival): 98 % of control
T/C (endpoint: median survival time, dose: 25.0 mg/kg/injection, schedule: Q04DX005 (ip), vehicle: Klucel (hydroxypropylcellulose) (HPC), higher = longer survival): 103 % of control
T/C (endpoint: median survival time, dose: 30.0 mg/kg/injection, schedule: Q01DX011 (ip), vehicle: carboxymethylcellulose (CMC), higher = longer survival): 105 % of control
T/C (endpoint: median survival time, dose: 50.0 mg/kg/injection, schedule: Q01DX005 (ip), vehicle: Klucel (hydroxypropylcellulose) (HPC), higher = longer survival): 105 % of control
T/C (endpoint: median survival time, dose: 50.0 mg/kg/injection, schedule: Q01DX009 (ip), vehicle: Klucel (hydroxypropylcellulose) (HPC), higher = longer survival): 94 % of control
T/C (endpoint: median survival time, dose: 50.0 mg/kg/injection, schedule: Q01DX011 (ip), vehicle: Klucel (hydroxypropylcellulose) (HPC), higher = longer survival): 113 % of control
T/C (endpoint: median survival time, dose: 50.0 mg/kg/injection, schedule: Q04DX003 (ip), vehicle: Klucel (hydroxypropylcellulose) (HPC), higher = longer survival): 96 % of control
T/C (endpoint: median survival time, dose: 50.0 mg/kg/injection, schedule: Q04DX005 (ip), vehicle: Klucel (hydroxypropylcellulose) (HPC), higher = longer survival): 100 % of control
T/C (endpoint: median survival time, dose: 100.0 mg/kg/injection, schedule: Q01DX001 (ip), vehicle: other, higher = longer survival): 89 % of control
T/C (endpoint: median survival time, dose: 100.0 mg/kg/injection, schedule: Q01DX001 (ip), vehicle: steriod suspending solution, higher = longer survival): 93 % of control
T/C (endpoint: median survival time, dose: 100.0 mg/kg/injection, schedule: Q01DX005 (ip), vehicle: Klucel (hydroxypropylcellulose) (HPC), higher = longer survival): 119 % of control
T/C (endpoint: median survival time, dose: 100.0 mg/kg/injection, schedule: Q04DX003 (ip), vehicle: Klucel (hydroxypropylcellulose) (HPC), higher = longer survival): 90 % of control and 108 % of control (2×)
T/C (endpoint: median survival time, dose: 100.0 mg/kg/injection, schedule: Q04DX005 (ip), vehicle: Klucel (hydroxypropylcellulose) (HPC), higher = longer survival): 101 % of control
T/C (endpoint: median survival time, dose: 200.0 mg/kg/injection, schedule: Q01DX001 (ip), vehicle: other, higher = longer survival): 86 % of control
T/C (endpoint: median survival time, dose: 200.0 mg/kg/injection, schedule: Q01DX001 (ip), vehicle: steriod suspending solution, higher = longer survival): 93 % of control
T/C (endpoint: median survival time, dose: 200.0 mg/kg/injection, schedule: Q04DX003 (ip), vehicle: Klucel (hydroxypropylcellulose) (HPC), higher = longer survival): 111 % of control and 115 % of control and 117 % of control
T/C (endpoint: median survival time, dose: 200.0 mg/kg/injection, schedule: Q04DX005 (ip), vehicle: Klucel (hydroxypropylcellulose) (HPC), higher = longer survival): 115 % of control
T/C (endpoint: median survival time, dose: 400.0 mg/kg/injection, schedule: Q01DX001 (ip), vehicle: other, higher = longer survival): 76 % of control
T/C (endpoint: median survival time, dose: 400.0 mg/kg/injection, schedule: Q04DX003 (ip), vehicle: Klucel (hydroxypropylcellulose) (HPC), higher = longer survival): 123 % of control
T/C (endpoint: median survival time, dose: 800.0 mg/kg/injection, schedule: Q01DX001 (ip), vehicle: other, higher = longer survival): 78 % of control
T/C (endpoint: median survival time, dose: 800.0 mg/kg/injection, schedule: Q01DX001 (ip), vehicle: steriod suspending solution, higher = longer survival): 87 % of control
T/C (endpoint: median survival time, dose: 800.0 mg/kg/injection, schedule: Q04DX003 (ip), vehicle: Klucel (hydroxypropylcellulose) (HPC), higher = longer survival): 29 % of control

NC(C=O)C(O)C(O)C(O)CO (configuration not stated)
T/C (endpoint: mean tumor weight (est.), dose: 750.0 mg/kg/injection, schedule: Q01DX011 (ip), vehicle: saline, higher = larger tumour): 77 % of control
T/C (endpoint: mean tumor weight (est.), dose: 1500.0 mg/kg/injection, schedule: Q01DX011 (ip), vehicle: saline, higher = larger tumour): 93 % of control
T/C (endpoint: mean tumor weight (est.), dose: 3000.0 mg/kg/injection, schedule: Q01DX011 (ip), vehicle: saline, higher = larger tumour): 89 % of control
T/C (endpoint: median survival time, dose: 1500.0 mg/kg/injection, schedule: Q01DX011 (ip), vehicle: saline, higher = longer survival): 104 % of control
T/C (endpoint: median survival time, dose: 3000.0 mg/kg/injection, schedule: Q01DX011 (ip), vehicle: saline, higher = longer survival): 104 % of control

COc1cc(C[C@H]2c3cc(OC)c(OC)cc3CCN2C)c(Oc2cc3c(cc2OC)-c2c(OC)c(OC)cc4c2[C@H](C3)N(C)CC4)cc1OC
T/C (endpoint: mean tumor weight, dose: 12.5 mg/kg/injection, schedule: Q01DX011 (ip), vehicle: other, higher = larger tumour): 104 % of control
T/C (endpoint: mean tumor weight, dose: 25.0 mg/kg/injection, schedule: Q01DX011 (ip), vehicle: other, higher = larger tumour): 100 % of control
T/C (endpoint: mean tumor weight, dose: 50.0 mg/kg/injection, schedule: Q01DX011 (ip), vehicle: other, higher = larger tumour): 93 % of control
T/C (endpoint: median survival time, dose: 12.5 mg/kg/injection, schedule: Q01DX011 (ip), vehicle: other, higher = longer survival): 105 % of control
T/C (endpoint: median survival time, dose: 25.0 mg/kg/injection, schedule: Q01DX011 (ip), vehicle: other, higher = longer survival): 108 % of control
T/C (endpoint: median survival time, dose: 50.0 mg/kg/injection, schedule: Q01DX011 (ip), vehicle: other, higher = longer survival): 117 % of control
